Experiments:
S. aureus ATCC 25923 = test: Antimicrobial MIC, S. aureus; type: cell-based; conditions: Staphylococcus aureus, ATCC25923, mean (n = 3)
Experimental: (§1) The susceptibility of bacterial strains S. aureus (ATCC 25923), E. coli (ATCC 25922) and P. aeruginosa (ATCC 27853) to antibiotics and compounds was determined using protocols reported previously. Additional antimicrobial evaluation against MRSA (ATCC 43300), Klebsiella pneumoniae (ATCC 700603), Acinetobacter baumannii (ATCC 19606), Candida albicans (ATCC 90028) and Cryptococcus neoformans (ATCC 208821) was undertaken at the Community for Open Antimicrobial Drug Discovery at The University of Queensland (Australia) according to their standard protocols reported previously.

C. albicans ATCC 90028 = test: Antifungal MIC, C. albicans (CO-ADD); type: cell-based; conditions: Candida albicans, ATCC90028, mean (n = 2)
Experimental: as §1

[1] = tested on: C. neoformans ATCC 208821; test: Antifungal MIC, C. neoformans (CO-ADD); type: cell-based; conditions: Cryptococcus neoformans, ATCC208821, mean (n = 2)
Experimental: as §1

P. aeruginosa ATCC 27853 [2] = test: Antimicrobial MIC, P. aeruginosa; type: cell-based; conditions: Pseudomonas aeruginosa, ATCC27853, mean (n = 3)
Experimental: as §1

E. coli ATCC 25922 [3] = test: Antimicrobial MIC, E. coli; type: cell-based, Escherichia coli; conditions: Escherichia coli, ATCC25922, E. coli ATCC 25922; mean (n = 3)
Experimental: as §1

human red blood cells = test: Hemolytic assay; type: cell-based; conditions: mean (n = 2)
Experimental: Hemolysis assays were conducted using the protocols previously reported.

E. coli ATCC 25922 [4] = test: Erythromycin enhancement against E. coli; type: cell-based, Escherichia coli; conditions: erythromycin fixed at 10.9 µM (8 µg/mL)
Experimental: (§2) Antibiotic enhancer concentrations were determined using previously reported protocols.

P. aeruginosa ATCC 27853 [5] = test: Doxycycline enhancement against P. aeruginosa; type: cell-based, Pseudomonas aeruginosa; conditions: doxycycline fixed at 4.5 µM
Experimental: as §2
We then evaluated the set of analogues for the ability to enhance the antibiotic activity of doxycycline against P. aeruginosa ATCC 27853 and of erythromycin against E. coli ATCC 25922 (Table 2). In the case of doxycycline, a fixed concentration of the antibiotic of 4.5 μM, which is twenty-fold lower than the intrinsic MIC 90 μM against this organism, was used. Each of the test compounds was then evaluated at a range of concentrations varying from 3.125 to 50–100 μM, with the upper concentration dependent upon the compounds intrinsic MIC towards P. aeruginosa (Table 1). […] While the observation of cytotoxicity/hemolytic properties of 16a–c, 14f and 13f reduces our interest in these analogues, analogues 13b and 13d were identified as non-toxic and strong enhancers of the action of doxycycline towards P. aeruginosa.

MRSA ATCC 43300 = test: Antimicrobial MIC, MRSA (CO-ADD); type: cell-based, methicillin-resistant S. aureus; conditions: Staphylococcus aureus; MRSA ATCC 43300; mean (n = 2); read-out: MIC MRSA
Experimental: as §1

Cytotoxicity assay = type: cell-based, human; conditions: human, HEK293 human embryonic kidney cells, mean (n = 2), read-out: Cytotoxicity (IC50), concentration of compound at 50% cytotoxicity
Experimental: Cytotoxicity assays were conducted using the protocols previously reported.

O=C(C=Cc1ccccc1)NCCCNCCCCCCCNCCCNC(=O)C=Cc1ccccc1.O=C(O)C(F)(F)F.O=C(O)C(F)(F)F [Compound 13c, N^1,N^7-Bis(3-cinnamamidopropyl)heptane-1,7-diaminium 2,2,2-trifluoroacetate]
MIC (S. aureus ATCC 25923): > 273 µM
MIC (C. albicans ATCC 90028): > 43.7 µM
MIC [1]: > 43.7 µM
MIC (P. aeruginosa ATCC 27853 [2]): > 273 µM
MIC (E. coli ATCC 25922 [3]): > 273 µM
Hemolysis (HC10), concentration of compound at 10% hemolytic activity (human red blood cells): >43.7 µM
Eryth/E. c: concentration required to restore erythromycin activity (E. coli ATCC 25922 [4]): 136 µM
Eryth/E. c: fold change (intrinsic MIC of test compound / combination MIC) (E. coli ATCC 25922 [4]): > 2 fold
Dox/P. a: concentration required to restore doxycycline activity (P. aeruginosa ATCC 27853 [5]): 68 µM
Dox/P. a: fold change (intrinsic MIC of test compound / combination MIC) (P. aeruginosa ATCC 27853 [5]): > 4 fold
MIC (MRSA ATCC 43300): > 43.7 µM
IC50 (Cytotoxicity assay): > 43.7 µM

O=C(C=Cc1ccccc1)NCCCNCCCCCCCCCCNCCCNC(=O)C=Cc1ccccc1.O=C(O)C(F)(F)F.O=C(O)C(F)(F)F [Compound 13e, N^1,N^10-Bis(3-cinnamamidopropyl)decane-1,10-diaminium 2,2,2-trifluoroacetate]
MIC (S. aureus ATCC 25923): 64.5 µM
MIC (C. albicans ATCC 90028): > 41.3 µM
MIC [1]: 41.3 µM
MIC (P. aeruginosa ATCC 27853 [2]): 645 µM
MIC (E. coli ATCC 25922 [3]): 645 µM
Hemolysis (HC10), concentration of compound at 10% hemolytic activity (human red blood cells): 37.6 µM
Eryth/E. c: concentration required to restore erythromycin activity (E. coli ATCC 25922 [4]): 64.5 µM
Eryth/E. c: fold change (intrinsic MIC of test compound / combination MIC) (E. coli ATCC 25922 [4]): 10 fold
Dox/P. a: concentration required to restore doxycycline activity (P. aeruginosa ATCC 27853 [5]): 645 µM
Dox/P. a: fold change (intrinsic MIC of test compound / combination MIC) (P. aeruginosa ATCC 27853 [5]): 1 fold
MIC (MRSA ATCC 43300): 20.6 µM
IC50 (Cytotoxicity assay): 24.3 µM

O=C(C=Cc1ccccc1)NCCCNCCCCCCCCCCCCNCCCNC(=O)C=Cc1ccccc1.O=C(O)C(F)(F)F.O=C(O)C(F)(F)F [Compound 13f, N^1,N^12-Bis(3-cinnamamidopropyl)dodecane-1,12-diaminium 2,2,2-trifluoroacetate]
MIC (S. aureus ATCC 25923): 3.12 µM
MIC (C. albicans ATCC 90028): > 39.9 µM
MIC [1]: ≤ 0.31 µM
MIC (P. aeruginosa ATCC 27853 [2]): 50 µM
MIC (E. coli ATCC 25922 [3]): 1.56 µM
Hemolysis (HC10), concentration of compound at 10% hemolytic activity (human red blood cells): >39.9 µM
Eryth/E. c: concentration required to restore erythromycin activity (E. coli ATCC 25922 [4]): 3.125 µM
Eryth/E. c: fold change (intrinsic MIC of test compound / combination MIC) (E. coli ATCC 25922 [4]): 0.5 fold
Dox/P. a: concentration required to restore doxycycline activity (P. aeruginosa ATCC 27853 [5]): 6.25 µM
Dox/P. a: fold change (intrinsic MIC of test compound / combination MIC) (P. aeruginosa ATCC 27853 [5]): 8 fold
MIC (MRSA ATCC 43300): ≤ 0.31 µM
IC50 (Cytotoxicity assay): 19.9 µM

COc1ccc(/C=C/C(=O)NCCCNCCCCCCNCCCNC(=O)/C=C/c2ccc(OC)cc2)cc1.O=C(O)C(F)(F)F.O=C(O)C(F)(F)F [Compound 14b, N^1,N^6-Bis(3-((E)-3-(4-methoxyphenyl)acrylamido)propyl)hexane-1,6-diaminium 2,2,2-trifluoroacetate]
MIC (S. aureus ATCC 25923): 64.2 µM
MIC (C. albicans ATCC 90028): > 41.1 µM
MIC [1]: ≤ 0.32 µM
MIC (P. aeruginosa ATCC 27853 [2]): > 257 µM
MIC (E. coli ATCC 25922 [3]): > 257 µM
Hemolysis (HC10), concentration of compound at 10% hemolytic activity (human red blood cells): >41.1 µM
Eryth/E. c: concentration required to restore erythromycin activity (E. coli ATCC 25922 [4]): 256 µM
Eryth/E. c: fold change (intrinsic MIC of test compound / combination MIC) (E. coli ATCC 25922 [4]): > 1 fold
Dox/P. a: concentration required to restore doxycycline activity (P. aeruginosa ATCC 27853 [5]): 64 µM
Dox/P. a: fold change (intrinsic MIC of test compound / combination MIC) (P. aeruginosa ATCC 27853 [5]): > 4 fold
MIC (MRSA ATCC 43300): 41.1 µM
IC50 (Cytotoxicity assay): > 41.1 µM

COc1ccc(/C=C/C(=O)NCCCNCCCCCCNCCCNC(=O)/C=C/c2ccc(OC)c(Br)c2)cc1Br.O=C(O)C(F)(F)F.O=C(O)C(F)(F)F [Compound 15b, N^1,N^6-Bis(3-((E)-3-(3-bromo-4-methoxyphenyl)acrylamido)propyl)hexane-1,6-diaminium 2,2,2-trifluoroacetate]
MIC (S. aureus ATCC 25923): 6.67 µM
MIC (C. albicans ATCC 90028): > 34.1 µM
MIC [1]: ≤ 0.27 µM
MIC (P. aeruginosa ATCC 27853 [2]): > 214 µM
MIC (E. coli ATCC 25922 [3]): 53 µM
Hemolysis (HC10), concentration of compound at 10% hemolytic activity (human red blood cells): 0.99 µM
Eryth/E. c: concentration required to restore erythromycin activity (E. coli ATCC 25922 [4]): 26.7 µM
Eryth/E. c: fold change (intrinsic MIC of test compound / combination MIC) (E. coli ATCC 25922 [4]): 2 fold
Dox/P. a: concentration required to restore doxycycline activity (P. aeruginosa ATCC 27853 [5]): 53.4 µM
Dox/P. a: fold change (intrinsic MIC of test compound / combination MIC) (P. aeruginosa ATCC 27853 [5]): > 4 fold
MIC (MRSA ATCC 43300): 2.1 µM
IC50 (Cytotoxicity assay): > 34.2 µM

COc1ccc(/C=C/C(=O)NCCCNCCCCCCCCNCCCNC(=O)/C=C/c2ccc(OC)c(Br)c2)cc1Br.O=C(O)C(F)(F)F.O=C(O)C(F)(F)F [Compound 15d, N^1,N^8-Bis(3-((E)-3-(3-bromo-4-methoxyphenyl)acrylamido)propyl)octane-1,8-diaminium 2,2,2-trifluoroacetate]
MIC (S. aureus ATCC 25923): 6.48 µM
MIC (C. albicans ATCC 90028): 33.2 µM
MIC [1]: ≤ 0.26 µM
MIC (P. aeruginosa ATCC 27853 [2]): > 207 µM
MIC (E. coli ATCC 25922 [3]): 25.9 µM
Hemolysis (HC10), concentration of compound at 10% hemolytic activity (human red blood cells): 0.52 µM
Eryth/E. c: concentration required to restore erythromycin activity (E. coli ATCC 25922 [4]): 25.9 µM
Eryth/E. c: fold change (intrinsic MIC of test compound / combination MIC) (E. coli ATCC 25922 [4]): 1 fold
Dox/P. a: concentration required to restore doxycycline activity (P. aeruginosa ATCC 27853 [5]): 51.8 µM
Dox/P. a: fold change (intrinsic MIC of test compound / combination MIC) (P. aeruginosa ATCC 27853 [5]): > 4 fold
MIC (MRSA ATCC 43300): ≤ 0.26 µM
IC50 (Cytotoxicity assay): 19.7 µM

COc1ccc(/C=C/C(=O)NCCCNCCCCCCCCCCNCCCNC(=O)/C=C/c2ccc(OC)c(Br)c2)cc1Br.O=C(O)C(F)(F)F.O=C(O)C(F)(F)F [Compound 15e, N^1,N^10-Bis(3-((E)-3-(3-bromo-4-methoxyphenyl)acrylamido)propyl)decane-1,10-diaminium 2,2,2-trifluoroacetate]
MIC (S. aureus ATCC 25923): 1.57 µM
MIC (C. albicans ATCC 90028): 32.2 µM
MIC [1]: 1 µM
MIC (P. aeruginosa ATCC 27853 [2]): 50.4 µM
MIC (E. coli ATCC 25922 [3]): 25.2 µM
Hemolysis (HC10), concentration of compound at 10% hemolytic activity (human red blood cells): 24.1 µM
Dox/P. a: concentration required to restore doxycycline activity (P. aeruginosa ATCC 27853 [5]): 50.4 µM
Dox/P. a: fold change (intrinsic MIC of test compound / combination MIC) (P. aeruginosa ATCC 27853 [5]): 1 fold
MIC (MRSA ATCC 43300): ≤ 0.25 µM
IC50 (Cytotoxicity assay): > 32.2 µM

COc1c(Br)cc(/C=C/C(=O)NCCCNCCCCCCNCCCNC(=O)/C=C/c2cc(Br)c(OC)c(Br)c2)cc1Br.O=C(O)C(F)(F)F.O=C(O)C(F)(F)F [Compound 16b, N^1,N^6-Bis(3-((E)-3-(3,5-dibromo-4-methoxyphenyl)acrylamido)propyl)hexane-1,6-diaminium 2,2,2-trifluoroacetate]
MIC (S. aureus ATCC 25923): 5.71 µM
MIC (C. albicans ATCC 90028): 29.2 µM
MIC [1]: ≤ 0.23 µM
MIC (P. aeruginosa ATCC 27853 [2]): > 183 µM
MIC (E. coli ATCC 25922 [3]): 11.4 µM
Hemolysis (HC10), concentration of compound at 10% hemolytic activity (human red blood cells): 0.91 µM
Eryth/E. c: concentration required to restore erythromycin activity (E. coli ATCC 25922 [4]): 11.4 µM
Eryth/E. c: fold change (intrinsic MIC of test compound / combination MIC) (E. coli ATCC 25922 [4]): 1 fold
Dox/P. a: fold change (intrinsic MIC of test compound / combination MIC) (P. aeruginosa ATCC 27853 [5]): > 16 fold
MIC (MRSA ATCC 43300): ≤ 0.23 µM
IC50 (Cytotoxicity assay): 15.6 µM

COc1c(Br)cc(/C=C/C(=O)NCCCNCCCCCCCCCCNCCCNC(=O)/C=C/c2cc(Br)c(OC)c(Br)c2)cc1Br.O=C(O)C(F)(F)F.O=C(O)C(F)(F)F [Compound 16e, N^1,N^10-Bis(3-((E)-3-(3,5-dibromo-4-methoxyphenyl)acrylamido)propyl)decane-1,10-diaminium 2,2,2-trifluoroacetate]
MIC (S. aureus ATCC 25923): 1.36 µM
MIC (C. albicans ATCC 90028): 27.8 µM
MIC [1]: ≤ 0.22 µM
MIC (P. aeruginosa ATCC 27853 [2]): 87 µM
MIC (E. coli ATCC 25922 [3]): 43.5 µM
Hemolysis (HC10), concentration of compound at 10% hemolytic activity (human red blood cells): 13.6 µM
Dox/P. a: concentration required to restore doxycycline activity (P. aeruginosa ATCC 27853 [5]): 43.5 µM
Dox/P. a: fold change (intrinsic MIC of test compound / combination MIC) (P. aeruginosa ATCC 27853 [5]): 2 fold
MIC (MRSA ATCC 43300): ≤ 0.22 µM
IC50 (Cytotoxicity assay): 2 µM

Source: PMC10377643, “Exploration of Bis-Cinnamido-Polyamines as Intrinsic Antimicrobial Agents and Antibiotic Enhancers” (Biomolecules, 2023)
